From patent US9420799B2, “Method for controlling nematode pests” (Syngenta Participations AG, priority 2011, dated 2016)

System: soybean cyst nematode (SCN)
Experiment: Yield response field trials: soybean seed treated with Pasteuria nishizawae, compared with seed not treated with Pasteuria
Assay type: in vivo, Heterodera glycines
Settings: for Yield Response for Resistant Varieties / Yield Response for Susceptible Varieties: approx. 1×10^7 spores/seed, percent yield increase vs seeds not treated with Pasteuria, averaged; for Yield Response for Susceptible Varieties: SCN susceptible soybean varieties
Experimental: Yield Response Experiment
Multiple field trials were conducted across the United States Midwest region. Baseline nematode populations were determined by sampling from 4 untreated plots. Samples were taken (10 cores per plot) at a depth of 6-8 inches (approx. 15.2-20.3 cm). Samples were stored in a cooler until laboratory assays (eggs/100 cc) were performed.
To allow for sufficient viability to assess results properly, both SCN resistant and susceptible varieties were treated with an insecticide and fungicide seed treatment (CRUISERMAXX seed treatment for beans available from Syngenta Crop Protection, LLC including thiamethoxam (22.61%); mefenoxam (1.70%) and fludioxonil (1.12%)). In addition for some test groups Pasteuria nishizawae treatment was applied at a rate of approximately 1×10^7 spores/seed. Percent yield increase was determined by comparing seeds treated with Pasteuria to those not treated with Pasteuria.
The results of 119 separate trials were sorted according to initial SCN pressure at trial location. Yield data were averaged.

Pasteuria nishizawae
Yield Response for Resistant Varieties (SCN resistant soybean varieties, SCN pressure 0 eggs/100 cc): 0.3%
Yield Response for Resistant Varieties (SCN resistant soybean varieties, SCN pressure 1-500 eggs/100 cc): 0.7%
Yield Response for Resistant Varieties (SCN resistant soybean varieties, SCN pressure 501-1000 eggs/100 cc): 2.6%
Yield Response for Resistant Varieties (SCN resistant soybean varieties, SCN pressure >1000 eggs/100 cc): 5.2%
Yield of resistant varieties, result in words (SCN resistant soybean varieties, all pest pressures): showed increase yield over non-Pasteuria treated soybean seed regardless of pest pressure
Yield Response for Susceptible Varieties (SCN pressure 0 eggs/100 cc): 1.3%
Yield Response for Susceptible Varieties (SCN pressure 1-500 eggs/100 cc): 1.0%
Yield Response for Susceptible Varieties (SCN pressure 501-1000 eggs/100 cc): 0.8%
Yield Response for Susceptible Varieties (SCN pressure >1000 eggs/100 cc): 0.0%
Yield of varieties with no resistance or tolerance to SCN, result in words (soybean varieties having no resistance or tolerance to SCN, benefit mostly in absence of or with low pest pressure): generally benefitted from treatment with Pasteuria
